The values below come from ChEMBL document CHEMBL5380796, “Small Molecular Mimetics of Antimicrobial Peptides as a Promising Therapy To Combat Bacterial Resistance” (J Med Chem, 2023).

Converted amounts (≈) assume the structure as drawn. Non-standard residues stand in square brackets, D forms with d. Residues, ends and D or L forms follow the SMILES beside them. Dip = N[C@H](C(=O)O)C(c1ccccc1)c1ccccc1; 2Nal = N[C@@H](Cc1ccc2ccccc2c1)C(=O)O

The test system of series [1] is Staphylococcus aureus. Briefly: Antibacterial activity against Staphylococcus aureus assessed as bacterial growth inhibition. In kind it is functional.
The subject of series [2] is Escherichia coli. Briefly: Antibacterial activity against Escherichia coli assessed as bacterial growth inhibition. It is filed as functional.
Another series deals with Micrococcus luteus. Briefly: Antibacterial activity against Micrococcus luteus DSM 1790 assessed as bacterial growth inhibition by microdilution assay. It is filed as functional.
Series [3] relates to Staphylococcus aureus. Nature of the series: Antibacterial activity against Staphylococcus aureus ATCC 25923 assessed as bacterial growth inhibition by microdilution assay. In kind it is functional. (In general: Dilution methods test growth across graded concentrations, often in twofold steps.)
The test system of series [4] is Staphylococcus aureus. Nature of the series: Antibacterial activity against Staphylococcus aureus ATCC 25923 assessed as bacterial growth inhibition. In kind it is functional.
Series [5] relates to Staphylococcus aureus. Briefly: Antibacterial activity against Staphylococcus aureus assessed as bacterial growth inhibition measured after 24 hrs by CLSI based micro broth double dilution method. It is filed as functional.
Series [6] deals with Escherichia coli. Briefly: Antibacterial activity against Escherichia coli assessed as bacterial growth inhibition measured after 24 hrs by CLSI based micro broth double dilution method. In kind it is functional.
Series [7] relates to Staphylococcus aureus. Nature of the series: Antibacterial activity against methicillin-resistant Staphylococcus aureus ATCC 33591 assessed as bacterial growth inhibition. It is filed as functional.
Series [8] relates to Pseudomonas aeruginosa. Briefly: Antibacterial activity against Pseudomonas aeruginosa ATCC 27853 assessed as bacterial growth inhibition. It is filed as functional. The conditions noted are these: ATCC27853.
For series [9], the system named is Escherichia coli. Nature of the series: Antibacterial activity against Escherichia coli ATCC 25922 assessed as bacterial growth inhibition. It is filed as functional.
The test system of the next series is Clostridioides difficile. Briefly: Antibacterial activity against Clostridium difficile UK6 assessed as bacterial growth inhibition. In kind it is functional.
Series [10] deals with Klebsiella pneumoniae. Briefly: Antibacterial activity against Klebsiella pneumoniae ATCC 13383 assessed as bacterial growth inhibition. In kind it is functional.
Series [11] deals with Staphylococcus epidermidis. Nature of the series: Antibacterial activity against methicillin-resistant Staphylococcus epidermidis RP62A assessed as bacterial growth inhibition. In kind it is functional.
The next series deals with Enterococcus. Briefly: Antibacterial activity against […] assessed as bacterial growth inhibition. In kind it is functional.
The test system of series [12] is Escherichia coli. Briefly: Antibacterial activity against Escherichia coli ATCC 25922 assessed as bacterial growth inhibition incubated for 12 to 16 hrs by microtiter plate reader based analysis. It is filed as functional. The conditions noted are these: time 12-16 hrs.
Series [13] deals with Pseudomonas aeruginosa. Briefly: Antibacterial activity against Pseudomonas aeruginosa ATCC 27853 assessed as bacterial growth inhibition incubated for 12 to 16 hrs by microtiter plate reader based analysis. It is filed as functional. As to conditions: time 12-16 hrs.
The test system of series [14] is Staphylococcus aureus. Nature of the series: Antibacterial activity against methicillin-resistant Staphylococcus aureus ATCC 33592 assessed as bacterial growth inhibition incubated for 12 to 16 hrs by microtiter plate reader based analysis. It is filed as functional. As to conditions: time 12-16 hrs.
Series [15] concerns Staphylococcus epidermidis. Briefly: Antibacterial activity against methicillin-resistant Staphylococcus epidermidis RP62A assessed as bacterial growth inhibition incubated for 12 to 16 hrs by microtiter plate reader based analysis. In kind it is functional. As to conditions: time 12-16 hrs.
In another series the test system is Enterococcus faecalis. Briefly: Antibacterial activity against vancomycin- resistant Enterococcus faecalis ATCC 700802 assessed as bacterial growth inhibition incubated for 12 to 16 hrs by microtiter plate reader based analysis. In kind it is functional. As to conditions: ATCC700802, time 12-16 hrs.
Series [16] in a line: Hemolytic activity in human RBC incubated for 10 mins by absorbance based analysis. In kind it is toxicity, cell-based, Erythrocyte. The conditions noted are these: red blood cells (erythrocytes).
The test system of series [17] is Pseudomonas aeruginosa. Nature of the series: Antibacterial activity against Pseudomonas aeruginosa assessed as bacterial growth inhibition. In kind it is functional.
Series [18] has as its system Klebsiella pneumoniae. Nature of the series: Antibacterial activity against Klebsiella pneumoniae assessed as bacterial growth inhibition. In kind it is functional.
Series [19] in a line: Cytotoxicity against mouse 3T3 cells assessed as reduction in cell viability. It is filed as toxicity, cell-based. As to conditions: NIH3T3 cells.
A short description of series [20]: Cytotoxicity against human HepG2 cells assessed as reduction in cell viability. In kind it is toxicity, cell-based.
For series [21], the system named is Staphylococcus aureus. Nature of the series: Antibacterial activity against methicillin-resistant Staphylococcus aureus assessed as bacterial growth inhibition by broth microdilution method. It is filed as functional.
Series [22] concerns Escherichia coli. Briefly: Antibacterial activity against Escherichia coli assessed as bacterial growth inhibition by broth microdilution method. It is filed as functional.

What is called MIC is the smallest concentration in the dilution series that meets the test's criterion for growth inhibition. Usually HC50 stands for the concentration giving 50% haemolysis. As usually defined, the EC50 is the concentration at which the effect is half-maximal.

Turning to `CC(C)CCOC(=O)[C@H](CC(C)C)NC(=O)[C@@H](CCCNC(=N)N)NC(=O)[C@@H](CCCCN)NC(=O)COc1ccc2ccccc2c1-c1c(OCCC(C)C)ccc2ccccc12`, the minimum inhibitory concentration (MIC) in the series with Staphylococcus aureus [1] was 2 µg/mL (≈ 2.27 µM).

In the case of `CC(C)(C)c1cc(C(C)(C)C)c2[nH]c(C(C)(C)C)c(C[C@H](N)C(=O)N[C@@H](CCCNC(=N)N)C(=O)NCc3ccccc3)c2c1`, the results for the MIC in the series with Staphylococcus aureus [1] and in the series on Escherichia coli [2] were 2.5 µg/mL (≈ 4.05 µM) and 10 µg/mL (≈ 16.2 µM), respectively.

In the case of `COC(=O)[C@H](CCCNC(=N)N)NC(=O)[C@H](Cc1c(C(C)(C)C)[nH]c2c(C(C)(C)C)cc(C(C)(C)C)cc12)NC(=O)[C@@H](N)CCCNC(=N)N`, the minimum inhibitory concentration (MIC) amounted to 5 µg/mL (≈ 7.15 µM) in the series with Staphylococcus aureus [1] and 20 µg/mL (≈ 28.6 µM) in the series on Escherichia coli [2].

As to `CC(C)(C)c1ccc(CC(N)C(=O)NC(CCCNC(=N)N)C(=O)Nc2cc(NC(=O)C(CCCNC(=N)N)NC(=O)C(N)Cc3ccc(C(C)(C)C)cc3)cc(C(N)=O)c2)cc1` (centres undefined), the figures for the minimum inhibitory concentration (MIC) with Micrococcus luteus, in the series with Staphylococcus aureus [3] and in the series with Staphylococcus aureus [4] were 1.9 µg/mL, 1.9 µg/mL and 1.9 µg/mL (≈ 2.18 µM), respectively.

In the case of `CCCOc1c2cc(C[N+](C)(C)C)cc1Cc1cc(C[N+](C)(C)C)cc(c1OCCC)Cc1cc(C[N+](C)(C)C)cc(c1OCCC)Cc1cc(C[N+](C)(C)C)cc(c1OCCC)C2`, the MIC with Staphylococcus aureus [5] and in the series with Escherichia coli [6] was 16 µg/mL in each case.

As for `CCCCCCN1C(=N)N(CC(=O)Nc2cccc(NC(=O)CN3C[C@H](Cc4ccccc4)N(CCCCCC)C3=N)c2)C[C@@H]1Cc1ccccc1`, the MIC in the series on Staphylococcus aureus [7] was found to be 0.16 µg/mL (≈ 0.226 µM); in the series on Pseudomonas aeruginosa [8], 6 µg/mL (≈ 8.49 µM); with Escherichia coli [9], 1.5 µg/mL (≈ 2.12 µM); in the series on Clostridioides difficile it was 1 µg/mL (≈ 1.41 µM); in the series on Klebsiella pneumoniae [10], 1.5 µg/mL (≈ 2.12 µM); in [11], 0.75 µg/mL (≈ 1.06 µM). Further, in the series on Enterococcus, the minimum inhibitory concentration (MIC) worked out at 0.75 µg/mL (≈ 1.06 µM).

For the molecule `CCCCCCCCCCCCCCCC(=O)N[C@@H](CCCCN)C(=O)N[C@@H](Cc1ccccc1)CN(CC(N)=O)C(=O)CCCN`, the MIC in the series with Escherichia coli [12] was 4 µg/mL (≈ 6.07 µM); with Pseudomonas aeruginosa [13] it was 2 µg/mL (≈ 3.04 µM); in the series with Staphylococcus aureus [14] it was 2 µg/mL (≈ 3.04 µM); in [15] it was 2 µg/mL (≈ 3.04 µM); in the series with Enterococcus faecalis, 2 µg/mL (≈ 3.04 µM). The concentration for 50% haemolysis (HC50) at 10 min in series [16] was 150 µg/mL.

Take `CC(C)NC(=O)N[C@H](CNC(=O)N[C@@H](CCCCN)CNC(=N)N[C@H](CNC(=O)N[C@H](CNC(=O)N[C@@H](CCCCN)CNC(=O)N[C@H](CNC(=O)N[C@@H](CCCCN)CNC(N)=O)Cc1c[nH]c2ccccc12)C(C)C)Cc1c[nH]c2ccccc12)C(C)C`: the MIC in the series on Staphylococcus aureus [1] came to 32 µg/mL (≈ 25.4 µM); in the series with Escherichia coli [2], 64 µg/mL (≈ 50.8 µM); with Pseudomonas aeruginosa [17], 256 µg/mL (≈ 203 µM).

Take `CC(C)(C)c1cc(NC(=O)c2cc(OCCN)cc(C(=O)Nc3cc(C(C)(C)C)cc(NC(=O)[C@H](N)CCCNC(=N)N)c3SCCN)c2)c(SCCN)c(NC(=O)[C@H](N)CCCNC(=N)N)c1`: the minimum inhibitory concentration (MIC) with Staphylococcus aureus [1] and in the series on Escherichia coli [2] was 12.5 µg/mL (≈ 12.8 µM) in each case.

As for `CC(=O)c1cccc(C(=O)Nc2cc(C(C)(C)C)cc(NC(=O)c3cccc(C(=O)Nc4cc(C(C)(C)C)cc(N)c4SCCN)c3)c2SCCN)c1`, the MIC with Escherichia coli [2] turned out to be 19 µg/mL (≈ 25.2 µM); with Klebsiella pneumoniae [18], 66 µg/mL (≈ 87.4 µM).

Turning to `COC(=O)[C@@H]1CCCCc2cc3ccccc3c(c2OC)-c2c(OC)c(cc3ccccc23)CC(NC(C)=O)C(=O)N[C@H](CCCCN)C(=O)N1` (some centres undefined), the MIC in the series on Staphylococcus aureus [1] was determined as 15 µg/mL (≈ 21.5 µM).

With `COc1cc(OC)c(C(=O)Nc2cc(C(F)(F)F)cc(NC(=O)CCCCNC(=N)N)c2SCCN)cc1C(=O)Nc1cc(C(F)(F)F)cc(NC(=O)CCCCNC(=N)N)c1SCCN`, the MIC in the series on Staphylococcus aureus [1] is 0.2 µg/mL (≈ 0.205 µM); in the series on Escherichia coli [2], 3.1 µg/mL (≈ 3.18 µM); in the series on Pseudomonas aeruginosa [17] it was 13 µg/mL (≈ 13.3 µM). Moreover, the concentration for a half-maximal effect (EC50) in series [19] and in series [20] was greater than 2000 µg/mL throughout.

Regarding `N=C(N)NCCC[C@@H]1NC(=O)[C@H](CCCNC(=N)N)NC(=O)[C@H](CCCNC(=N)N)NC(=O)[C@H](Cc2ccc3ccccc3c2)NC(=O)[C@H](Cc2ccc3ccccc3c2)NC(=O)[C@H](Cc2ccc3ccccc3c2)NC(=O)[C@H](CCCNC(=N)N)NC1=O` (cyclo(RRRR[2Nal][2Nal][2Nal])), the figures for the MIC in the series on Staphylococcus aureus [21] and with Escherichia coli [22] were 3.1 µg/mL (≈ 2.55 µM) and 12.5 µg/mL (≈ 10.3 µM), respectively.

As to `N=C(N)NCCC[C@@H]1NC(=O)[C@H](CCCNC(=N)N)NC(=O)[C@H](CCCNC(=N)N)NC(=O)[C@H](C(c2ccccc2)c2ccccc2)NC(=O)[C@H](C(c2ccccc2)c2ccccc2)NC(=O)[C@H](C(c2ccccc2)c2ccccc2)NC(=O)[C@H](CCCNC(=N)N)NC1=O` (cyclo(RRRR[Dip][Dip][Dip])), the results for the minimum inhibitory concentration (MIC) in the series with Staphylococcus aureus [21] and with Escherichia coli [22] were 3.1 µg/mL (≈ 2.39 µM) and 12.5 µg/mL (≈ 9.66 µM), respectively.

On to `CC(C)(C)c1cc(C(C)(C)C)c2[nH]c(C(C)(C)C)c(C[C@H](NC(=O)[C@@H](N)CCCNC(=N)N)C(=O)N[C@@H](CCCNC(=N)N)C(=O)NCCc3ccccc3)c2c1` [LTX-109], for which the MIC in the series on Staphylococcus aureus [1] was determined as 2.5 µg/mL (≈ 3.17 µM); with Escherichia coli [2], 7.5 µg/mL (≈ 9.52 µM).

Turning to H-WRWRW-NH2, the MIC with Staphylococcus aureus [1] worked out at 10 µg/mL; in the series with Escherichia coli [2], 15 µg/mL.
